# Literature values in patent publication US20200197416A1, “PHARMACEUTICAL COMPOSITION COMPRISING ABIRATERONE ACETATE AND DARULOTAMIDE” (NanGenex Nanotechnology Incorporated, priority 2017, published 2020).
# Read-outs that look alike come from different tables or passages of the source.
# Tests used:
# P-glycoprotein (P-gp) = P-glycoprotein (P-gp) (Homo sapiens, UniProt P08183)
# [1] = for compound present in feces, % of the administered dose: oral 14C-abiraterone acetate
# [2] = tested on: serum testosterone and other androgens; conditions: patients, placebo-controlled phase 3 clinical trial
# [3] = not given; remark: listed apart in the source
# [4] = not given; remark: listed apart in the source
# [5] = tested on: human plasma proteins, albumin and alpha-1 acid glycoprotein
# [6] = not given; remark: listed apart in the source
# PSA levels = conditions: early phase clinical trials, Western mCRPC patients
# AR = conditions: preclinical trials
# [7] = not given; remark: listed apart in the source
# [8] = in vivo
# [9] = for geometric mean Cmax,md / median tmax.md: day 7
# [10] = high-fat (57% fat, 825 calories) meal
# [11] = low-fat meal (7% fat, 300 calories)
# [12] = single dose of Abiraterone acetate, up to
# [13] = 1,000 mg daily, patients with metastatic CRPC
# Sequence of P-glycoprotein (P-gp) (P08183 whole entry): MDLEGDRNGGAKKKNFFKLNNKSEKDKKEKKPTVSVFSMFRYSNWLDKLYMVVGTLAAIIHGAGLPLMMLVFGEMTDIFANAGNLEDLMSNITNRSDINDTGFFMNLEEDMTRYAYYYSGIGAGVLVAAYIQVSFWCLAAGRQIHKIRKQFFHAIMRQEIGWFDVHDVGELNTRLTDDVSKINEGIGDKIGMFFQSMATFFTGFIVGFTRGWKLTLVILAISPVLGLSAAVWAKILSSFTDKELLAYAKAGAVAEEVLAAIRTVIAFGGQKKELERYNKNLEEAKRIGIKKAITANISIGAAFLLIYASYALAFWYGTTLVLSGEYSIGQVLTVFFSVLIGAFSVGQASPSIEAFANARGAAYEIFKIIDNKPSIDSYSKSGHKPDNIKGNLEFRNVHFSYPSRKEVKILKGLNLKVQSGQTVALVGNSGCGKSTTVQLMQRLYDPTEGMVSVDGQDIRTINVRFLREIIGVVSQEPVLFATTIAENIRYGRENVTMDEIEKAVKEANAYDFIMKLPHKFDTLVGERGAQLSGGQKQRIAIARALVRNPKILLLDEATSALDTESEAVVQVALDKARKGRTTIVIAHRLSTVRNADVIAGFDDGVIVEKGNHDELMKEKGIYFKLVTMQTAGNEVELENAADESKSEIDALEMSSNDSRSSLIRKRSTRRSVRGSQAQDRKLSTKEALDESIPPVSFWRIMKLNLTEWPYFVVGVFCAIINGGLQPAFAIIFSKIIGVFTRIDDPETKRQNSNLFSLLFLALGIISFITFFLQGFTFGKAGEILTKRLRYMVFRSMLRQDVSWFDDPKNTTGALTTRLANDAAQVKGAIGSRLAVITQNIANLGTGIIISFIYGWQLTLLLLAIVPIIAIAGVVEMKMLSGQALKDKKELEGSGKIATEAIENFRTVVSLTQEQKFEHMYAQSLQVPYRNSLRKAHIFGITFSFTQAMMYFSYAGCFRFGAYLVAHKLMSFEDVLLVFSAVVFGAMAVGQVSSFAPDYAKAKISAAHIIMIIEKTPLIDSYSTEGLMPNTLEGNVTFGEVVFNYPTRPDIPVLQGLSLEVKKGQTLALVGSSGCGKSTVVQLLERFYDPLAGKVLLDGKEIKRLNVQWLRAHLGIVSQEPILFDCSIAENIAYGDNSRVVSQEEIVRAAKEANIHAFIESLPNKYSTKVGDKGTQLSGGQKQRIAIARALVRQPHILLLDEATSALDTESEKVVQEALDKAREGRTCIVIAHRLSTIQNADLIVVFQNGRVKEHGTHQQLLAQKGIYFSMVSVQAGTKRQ
molecule,measurement,setting,value
"CC(=O)O[C@H]1CC[C@@]2(C)C(=CC[C@@H]3[C@@H]2CC[C@]2(C)C(c4cccnc4)=CC[C@@H]32)C1 [Abiraterone acetate, (3β)-17-(3-pyridinyl) androsta-5,16-dien-3-yl acetate]",pKa of the aromatic nitrogen,,5.19
same,inhibition of P-gp,P-glycoprotein (P-gp); not told,inhibitor of P-gp
same,substrate of P-glycoprotein (P-gp),P-glycoprotein (P-gp); not told,not substrates
same,"compound present in feces, % of the administered dose",[1],approximately 55%
same,effect on serum testosterone and other androgens,[2],decreased
same,solubility in water,[3],practically insoluble
same,Abiraterone acetate plasma concentrations,"[4]; clinical studies, below detectable levels in >99% of the analyzed samples",< 0.2 ng/mL
"(3β)-17-(3-pyridinyl) androsta-5,16-dien-3-yl acetate [Abiraterone acetate]",radioactive dose recovered in feces,[1]; oral administration,approximately 88%
same,radioactive dose recovered in urine,[1]; oral administration,approximately 5%
C[C@]12CC[C@H](O)CC1=CC[C@@H]1[C@@H]2CC[C@]2(C)C(c3cccnc3)=CC[C@@H]12 [Abiraterone],substrate of P-glycoprotein (P-gp),"P-glycoprotein (P-gp); in vitro, clinically relevant concentrations",not substrates
same,"compound present in feces, % of the administered dose",[1],~22%
same,bound to human plasma proteins,[5],> 99%
same,"Abiraterone AUC0-28, fold higher with food",[6]; [10],~10 fold
same,"Abiraterone Cmax, fold higher with food",[6]; [10],approximately 17 fold
same,"Abiraterone AUC0-28, fold higher with food",[6]; [11],~5 fold
same,"Abiraterone Cmax, fold higher with food",[6]; [11],approximately 7 fold
same,Abiraterone AUC0-28 (exposure) increase (food effect),[6]; [12],≤ 10 fold
same,Abiraterone Cmax increase (food effect),[6]; [12],up to 17 fold
same,steady-state AUC (mean±SD),[4]; [13],993 ± 639 ng·h/mL
same,steady-state C. (mean±SD),[4]; [13],226 ± 178 ng/mL
same,increase in the mean AUC when dose doubled,"[4]; dose doubled from 1,000 to 2,000 mg",8%
same,apparent steady-state volume of distribution (mean±SD),"[4]; human, in vivo","19,669±13,358 L"
same,median time to reach maximum plasma Abiraterone concentrations,"[4]; oral Abiraterone acetate, patients with metastatic CRPC",2 h
same,mean terminal half-life of Abiraterone in plasma (mean±SD),[4]; patients with metastatic CRPC,12 ± 5 h
same,"accumulation: steady-state AUC compared to a single 1,000 mg dose","[4]; steady-state vs single 1,000 mg dose of Abiraterone acetate",2 fold
C[C@]12CC[C@H](OS(=O)(=O)O)CC1=CC[C@@H]1[C@@H]2CC[C@]2(C)C(c3ccc[n+]([O-])c3)=CC[C@@H]12 [N-oxide Abiraterone sulphate],share of exposure of circulating metabolite in human plasma,[1]; oral 14C-abiraterone acetate as capsules,about 43%
CC(O)c1cc(C(=O)N[C@@H](C)Cn2ccc(-c3ccc(C#N)c(Cl)c3)n2)n[nH]1 (stereo partly drawn) [Darolutamide],PSA levels,PSA levels,significant reductions
same,binding affinity compared with other AR antagonists (such as bicalutamide and enzalutamide),AR,higher binding affinity
same,Cmax after single dose under fed conditions,"[7]; 300 mg single dose, fed",2590 ng/mL
same,Cmax after single dose under fed conditions,"[7]; 600 mg single dose, fed",3500 ng/mL
same,AUC(0-t last) fed state compared with fasting state,[7]; after 300 and 600 mg,2.5 fold
same,bioavailability fed versus fasting conditions,[7]; single oral dose 300 mg,2.5 fold
same,bioavailability fed versus fasting conditions,[7]; single oral dose 600 mg,2.8 fold
same,overall median tmax,[7]; single-dose period,3 to 6 h
same,terminal half-life,[7]; single-dose period,10 to 15 h
same,blood-brain barrier penetration,[8],negligible
same,"Cmax,md versus Cmax after single dose under fed conditions",[9]; 300 mg,approximately 1.8 times
same,geometric mean AUCtau(0-12)md,[9]; 300 mg BID,44400 ng·h/mL
same,mean linearity factor (RLIN),[9]; 300 mg BID,0.910
same,"geometric mean Cmax,md",[9]; 300 mg BID,4600 ng/mL
same,median tmax.md,[9]; 300 mg BID,4.98 h
same,"Cmax,md versus Cmax after single dose under fed conditions",[9]; 600 mg,~1.7 times
same,geometric mean AUCtau(0-12)md,[9]; 600 mg BID,58700 ng·h/mL
same,mean linearity factor (RLIN),[9]; 600 mg BID,0.961
same,"geometric mean Cmax,md",[9]; 600 mg BID,5800 ng/mL
same,median tmax.md,[9]; 600 mg BID,5.48 h
same,increase in exposure after multiple dosing with 600 mg BID versus 300 mg BID,[9]; in vivo,1.3 fold
CC(=O)c1cc(C(=O)N[C@@H](C)Cn2ccc(-c3ccc(C#N)c(Cl)c3)n2)[nH]n1 [keto-Darolutamide],exposure to metabolite keto-Darolutamide compared with Darolutamide,"[7]; single dose 300 mg, fasting",1.28 fold
same,exposure to metabolite keto-Darolutamide compared with Darolutamide,"[7]; single dose 300 mg, fed",1.33 fold
same,exposure to metabolite keto-Darolutamide compared with Darolutamide,"[7]; single dose 600 mg, fasting",1.44 fold
same,exposure to metabolite keto-Darolutamide compared with Darolutamide,"[7]; single dose 600 mg, fed",1.61 fold
